Experimental data taken from ChEMBL document CHEMBL1255183, “Role of the phenolic hydroxyl group in the biological activities of simplified analogue of aplysiatoxin with antiproliferative activity” (Bioorg Med Chem Lett, 2010).

Tests used:
[1] = Cytotoxicity against human Raji cells assessed as viability at 1 uM; assay type: cell-based; conditions: read-out: Activity
[2] = system: Raji; experiment: Induction of EBA-early antigen production in human Raji cells at 1 uM; assay type: cell-based; conditions: human gammaherpesvirus 4
[3] = Cytotoxicity against human Raji cells assessed as viability at 10^-7 M; assay type: cell-based; conditions: read-out: Activity
[4] = system: Raji; experiment: Induction of EBA-early antigen production in human Raji cells at 10^-7 M; assay type: cell-based; conditions: human gammaherpesvirus 4
[5] = target: Protein kinase C theta type (Homo sapiens, UniProt Q04759); experiment: Inhibition of [3H]PDBu binding to PKCtheta C1B peptide
Protein kinase C theta type, sequence (Q04759 whole entry): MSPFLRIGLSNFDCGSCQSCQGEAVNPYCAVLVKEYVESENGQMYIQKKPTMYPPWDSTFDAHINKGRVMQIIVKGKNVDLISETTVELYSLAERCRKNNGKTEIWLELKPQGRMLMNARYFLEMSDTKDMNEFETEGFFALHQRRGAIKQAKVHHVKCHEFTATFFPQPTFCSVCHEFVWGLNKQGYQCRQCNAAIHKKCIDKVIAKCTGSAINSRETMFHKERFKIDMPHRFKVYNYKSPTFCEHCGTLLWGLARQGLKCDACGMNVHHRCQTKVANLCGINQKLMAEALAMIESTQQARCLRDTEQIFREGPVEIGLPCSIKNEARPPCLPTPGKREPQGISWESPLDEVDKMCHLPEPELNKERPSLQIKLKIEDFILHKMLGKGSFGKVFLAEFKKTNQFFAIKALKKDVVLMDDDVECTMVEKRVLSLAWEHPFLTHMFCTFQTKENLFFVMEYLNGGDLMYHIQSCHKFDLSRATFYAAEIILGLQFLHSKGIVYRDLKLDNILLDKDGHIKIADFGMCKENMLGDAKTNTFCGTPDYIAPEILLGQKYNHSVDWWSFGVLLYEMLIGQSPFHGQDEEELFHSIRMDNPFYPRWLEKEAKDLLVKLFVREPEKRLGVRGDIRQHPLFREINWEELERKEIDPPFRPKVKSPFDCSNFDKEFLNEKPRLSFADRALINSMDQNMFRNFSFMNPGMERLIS

[6] = target: Protein kinase C beta type (Homo sapiens, UniProt P05771); experiment: Inhibition of [3H]PDBu binding to PKC beta C1A peptide
Protein kinase C beta type, sequence (P05771 whole entry): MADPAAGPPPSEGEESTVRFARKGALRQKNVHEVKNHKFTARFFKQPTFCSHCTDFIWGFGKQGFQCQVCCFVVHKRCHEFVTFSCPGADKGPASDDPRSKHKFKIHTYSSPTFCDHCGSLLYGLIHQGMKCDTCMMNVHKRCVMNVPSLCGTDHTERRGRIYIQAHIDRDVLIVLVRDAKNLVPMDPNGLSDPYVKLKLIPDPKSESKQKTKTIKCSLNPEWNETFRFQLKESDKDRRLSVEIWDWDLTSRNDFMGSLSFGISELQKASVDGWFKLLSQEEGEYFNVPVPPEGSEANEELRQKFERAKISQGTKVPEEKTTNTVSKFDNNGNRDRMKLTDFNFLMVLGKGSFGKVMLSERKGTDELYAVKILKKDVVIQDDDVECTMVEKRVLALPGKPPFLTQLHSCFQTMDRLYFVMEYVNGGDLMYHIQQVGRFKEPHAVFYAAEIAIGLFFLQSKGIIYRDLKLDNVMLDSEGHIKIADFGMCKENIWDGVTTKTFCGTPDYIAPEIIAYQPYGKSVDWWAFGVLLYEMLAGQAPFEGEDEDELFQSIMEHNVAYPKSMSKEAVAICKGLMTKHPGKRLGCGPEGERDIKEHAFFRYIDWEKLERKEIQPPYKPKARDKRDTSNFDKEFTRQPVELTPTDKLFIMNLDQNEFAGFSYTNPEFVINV

[7] = system: Raji; experiment: Inhibition of TPA-induced EBA-early antigen production in human Raji cells at 1 uM; assay type: cell-based; parameters: scale not given: the % may be the effect or the level left; conditions: human gammaherpesvirus 4
[8] = target: Protein kinase C alpha type (Homo sapiens, UniProt P17252); experiment: Inhibition of [3H]PDBu binding to PKC alpha C1A peptide
[9] = target: T1, Protein kinase C epsilon type (Homo sapiens, UniProt Q02156); experiment: Inhibition of [3H]PDBu binding to PKCepsilon C1B peptide
T1 sequence (Q02156 whole entry): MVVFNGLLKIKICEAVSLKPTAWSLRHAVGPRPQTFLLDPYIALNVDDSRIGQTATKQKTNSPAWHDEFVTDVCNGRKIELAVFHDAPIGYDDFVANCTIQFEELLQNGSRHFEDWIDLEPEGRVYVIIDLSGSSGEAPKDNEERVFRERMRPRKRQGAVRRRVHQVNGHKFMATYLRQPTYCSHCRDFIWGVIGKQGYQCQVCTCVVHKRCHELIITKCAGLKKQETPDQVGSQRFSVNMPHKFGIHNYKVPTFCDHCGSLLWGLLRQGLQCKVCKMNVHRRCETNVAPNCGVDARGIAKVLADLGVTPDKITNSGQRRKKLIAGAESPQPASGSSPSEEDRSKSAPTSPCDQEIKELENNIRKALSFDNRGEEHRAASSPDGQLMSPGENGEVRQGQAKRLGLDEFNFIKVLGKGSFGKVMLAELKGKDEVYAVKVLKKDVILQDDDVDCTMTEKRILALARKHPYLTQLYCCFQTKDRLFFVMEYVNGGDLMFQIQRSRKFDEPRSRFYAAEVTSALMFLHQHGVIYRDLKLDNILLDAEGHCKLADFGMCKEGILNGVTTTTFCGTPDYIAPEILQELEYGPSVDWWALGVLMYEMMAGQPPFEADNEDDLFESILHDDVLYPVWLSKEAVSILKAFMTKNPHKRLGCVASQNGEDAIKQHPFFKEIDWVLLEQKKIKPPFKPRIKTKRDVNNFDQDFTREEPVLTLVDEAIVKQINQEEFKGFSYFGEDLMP

[10] = Cytotoxicity against human Raji cells assessed as viability at 1 uM in presence of TPA; assay type: cell-based; conditions: read-out: Activity
[11] = target: T2, Protein kinase C delta type (Homo sapiens, UniProt Q05655); experiment: Inhibition of [3H]PDBu binding to PKC delta C1B peptide
T2 sequence (Q05655 whole entry): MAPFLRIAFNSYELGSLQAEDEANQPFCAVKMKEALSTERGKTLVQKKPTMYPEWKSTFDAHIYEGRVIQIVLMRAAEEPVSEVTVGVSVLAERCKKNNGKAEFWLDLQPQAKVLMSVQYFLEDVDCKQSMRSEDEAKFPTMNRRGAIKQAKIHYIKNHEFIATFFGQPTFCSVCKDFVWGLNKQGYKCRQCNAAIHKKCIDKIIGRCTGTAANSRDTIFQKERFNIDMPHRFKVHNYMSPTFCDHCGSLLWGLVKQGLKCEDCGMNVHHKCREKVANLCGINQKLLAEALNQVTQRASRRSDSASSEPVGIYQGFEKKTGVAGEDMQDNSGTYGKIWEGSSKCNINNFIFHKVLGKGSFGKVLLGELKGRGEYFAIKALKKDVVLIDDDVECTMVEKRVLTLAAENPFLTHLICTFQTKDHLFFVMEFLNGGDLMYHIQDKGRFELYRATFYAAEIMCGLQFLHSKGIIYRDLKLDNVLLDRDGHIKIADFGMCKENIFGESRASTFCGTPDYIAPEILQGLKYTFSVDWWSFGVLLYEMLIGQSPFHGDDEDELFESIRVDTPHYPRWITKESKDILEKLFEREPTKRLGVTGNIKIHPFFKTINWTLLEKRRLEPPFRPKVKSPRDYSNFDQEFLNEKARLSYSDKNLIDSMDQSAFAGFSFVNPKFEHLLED

[12] = system: Raji; experiment: Inhibition of TPA-induced EBA-early antigen production in human Raji cells at 10^-7 M; assay type: cell-based; parameters: scale not given: the % may be the effect or the level left; conditions: human gammaherpesvirus 4
[13] = Cytotoxicity against human Raji cells assessed as viability at 10^-7 M in presence of TPA; assay type: cell-based; conditions: read-out: Activity
[14] = target: Protein kinase C gamma type (Homo sapiens, UniProt P05129); experiment: Inhibition of [3H]PDBu binding to PKC gamma C1A peptide
[15] = target: T2, Protein kinase C delta type; experiment: Inhibition of [3H]PDBu binding to PKC delta C1A peptide
[16] = target: Protein kinase C eta type (Homo sapiens, UniProt P24723); experiment: Inhibition of [3H]PDBu binding to PKCeta C1B peptide
Protein kinase C eta type, sequence (P24723 whole entry): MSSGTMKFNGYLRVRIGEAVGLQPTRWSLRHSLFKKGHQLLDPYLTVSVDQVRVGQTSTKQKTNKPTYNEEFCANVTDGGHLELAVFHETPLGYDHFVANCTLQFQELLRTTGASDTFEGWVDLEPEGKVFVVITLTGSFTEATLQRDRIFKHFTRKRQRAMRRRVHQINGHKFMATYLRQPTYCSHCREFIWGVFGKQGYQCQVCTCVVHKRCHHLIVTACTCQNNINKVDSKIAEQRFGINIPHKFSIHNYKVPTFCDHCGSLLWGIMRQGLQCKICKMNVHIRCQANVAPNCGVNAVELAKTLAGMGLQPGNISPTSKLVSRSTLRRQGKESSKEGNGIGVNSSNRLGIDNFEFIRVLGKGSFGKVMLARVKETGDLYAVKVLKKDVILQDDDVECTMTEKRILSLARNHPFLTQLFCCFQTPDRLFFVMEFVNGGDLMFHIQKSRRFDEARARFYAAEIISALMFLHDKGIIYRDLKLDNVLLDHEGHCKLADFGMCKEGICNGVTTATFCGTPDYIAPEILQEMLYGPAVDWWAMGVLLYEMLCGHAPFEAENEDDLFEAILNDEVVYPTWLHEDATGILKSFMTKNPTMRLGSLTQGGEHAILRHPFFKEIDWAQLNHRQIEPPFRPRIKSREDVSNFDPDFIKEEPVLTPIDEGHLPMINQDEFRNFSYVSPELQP

[17] = system: HCC 2998; experiment: Cytotoxicity against human HCC2998 cells; assay type: functional
[18] = system: PC-3; experiment: Cytotoxicity against human PC3 cells; assay type: functional
[19] = system: NCI-H460; experiment: Cytotoxicity against human NCI-H460 cells; assay type: functional
[20] = system: SF-295; experiment: Cytotoxicity against human SF295 cells; assay type: functional
[21] = system: MDA-MB-231; experiment: Cytotoxicity against human MDA-MB-231 cells; assay type: functional
[22] = system: A549; experiment: Cytotoxicity against human A549 cells; assay type: functional

SMILES	viability at 1 µM [1] [%]	Activity [2] [%]	viability at 0.1 µM [3] [%]	Activity [4] [%]	Activity [7] [%]	viability at 1 µM [10] [%]	Activity [12] [%]	viability at 0.1 µM [13] [%]	further results
CCCCCCCCCCCCCC(=O)O[C@@H]1[C@@H](C)[C@@]2(O)[C@@H](C=C(CO)C[C@]3(O)C(=O)C(C)=C[C@@H]23)[C@@H]2C(C)(C)[C@]12OC(C)=O [PHORBOL MYRISTATE ACETATE]	50	30.2	60	28.8					
CO[C@@H](CC[C@H](C)[C@H]1O[C@@]23C[C@H](OC(=O)C[C@H]([C@@H](C)O)OC(=O)C[C@](O)(O2)[C@H](C)CC3(C)C)[C@@H]1C)c1cc(O)ccc1Br [APLYSIATOXIN]	40	20.1	50	18.4	19.4	40	17.8	50	Ki [5]: 0.16 nM; Ki [6]: 0.45 nM; Ki [8]: 0.4 nM; Ki [9]: 1.3 nM; Ki [11]: 0.41 nM; Ki [14]: 0.63 nM; Ki [15]: 12 nM; Ki [16]: 0.36 nM
CCC/C=C/C=C/C(=O)O[C@H]1/C(=C/C(=O)OC)C[C@H]2C[C@H]([C@@H](C)O)OC(=O)C[C@H](O)C[C@@H]3C[C@H](OC(C)=O)C(C)(C)[C@](O)(C[C@@H]4C/C(=C/C(=O)OC)C[C@H](/C=C/C(C)(C)[C@]1(O)O2)O4)O3 [BRYOSTATIN 1]	40	2	60	1.4	5	40	6.8	60	GI50 [17]: 5010 nM; GI50 [18]: 5010 nM; GI50 [19]: 2510 nM; GI50 [20]: 6310 nM; GI50 [21]: 6310 nM; GI50 [22]: 6310 nM
